Earlier results on four compounds are cited in US20250195458A1, “SHORT-CHAIN FATTY ACIDS FOR CANCER TREATMENT” (priority 2022, published 2025).

For one data set, the system named is colorectal cancer cells. The note with it: literature summary of Example 2.
Data set [1] relates to pancreatic carcinoma cell lines (Capan-2, AsPC-1, and MiaPaCa-2). The note with it: Capan-2, AsPC-1, MiaPaCa-2; literature summary of Example 2.
The next data set has as its system human lung cancer cells. The note with it: literature summary of Example 2.
Another data set has as its system pancreatic cancer. The settings on record: literature summary of Example 2.

On to `CC(=O)O` [Acetate], for which the “Anti-tumor effect in colorectal cancer (apoptosis)” value in the data set on colorectal cancer cells is recorded as “triggers apoptosis in colorectal cancer cells”.

Regarding `CC(=O)O[C@]1(C(C)=O)CC[C@H]2[C@@H]3C[C@H](C)C4=CC(=O)CC[C@]4(C)[C@H]3CC[C@@]21C` [Medroxyprogesterone acetate], the “Proliferation of pancreatic carcinoma cell lines” value in data set [1] is “blocks the proliferation”. Consider `CCC(=O)O` [Propionate], for which the “Anti-tumor effect in colorectal cancer (apoptosis)” value in the data set on colorectal cancer cells is recorded as “induces apoptosis in colon cancer”. Also, the “Apoptosis and cell cycle arrest, lung cancer” value in the data set with human lung cancer cells is “triggering cell apoptosis and cell cycle arrest”.

With `CCCC(=O)[O-].[Na+]` [Sodium butyrate], the “Invasion of pancreatic cancer” value in the data set on pancreatic cancer was “hinders the invasion of pancreatic cancer”. Moreover, in the data set with human lung cancer cells, the “Expression levels of P-gp and STAT3 in human lung cancer cells” value was “increases the expression levels of P-gp and STATS3”.
